The test system of assay [1] is MOLT-4. Put plainly: Cytotoxic Activity against human tumor MOLT-4 cell line. In kind it is functional, cell-based.
In a further assay the test system is TSGH 8302. Put plainly: Cytotoxic activity against human tumor TSGH 8302 cell line. In kind it is functional, cell-based.
For another assay, the system named is HepG2. Description: Cytotoxic activity against human tumor HepG2 cell line. In kind it is functional, cell-based.
The test system of the next assay is KB. Description: Cytotoxic activity against human tumor KB cell line. In kind it is functional, cell-based.
The next assay relates to COLO 205. Put plainly: Cytotoxic activity against human tumor COLO 205 cell line. It counts as functional, cell-based.
For assay [2], the system named is MOLT-4. Put plainly: Cytotoxic Activity against human tumor MOLT-4 cell line with 20 micro g/mL. In kind it is functional.
The test system of assay [3] is Mus musculus. Put plainly: Antitumor activity against Murine K1735/M2 Melanoma xenograft expressed as body weight change from day 0 to 20 in mice at dose of 300 mg/kg oral administration. In kind it is functional.
For assay [4], the system named is Mus musculus. Description: Tumor growth inhibition determined at day 20 after tumor transplantation in mice at dose of 300 mg/kg oral administration. In kind it is functional. The note with it: 480 h.

Values after ≈ are worked out from the molar mass of the structure shown. A value given as a limit tells only on which side of the number the result lay.

For the molecule `CCCCOc1ccc(S(=O)(=O)N/C(=N\O)Nc2ccc(Cl)cc2)cc1`, the IC50 with MOLT-4 [1] is 18 µg/mL (≈ 45.2 µM); in the assay on TSGH 8302, 37 µg/mL (≈ 93 µM); in the assay with HepG2, 63 µg/mL (≈ 158 µM); with KB, 50 µg/mL (≈ 126 µM); with COLO 205, 49 µg/mL (≈ 123 µM).

In the case of `O=[N+]([O-])c1ccc(Oc2c(Cl)cc(S(=O)(=O)N/C(=N\O)Nc3ccc(Cl)cc3)cc2Cl)cc1`, the IC50 in the assay on MOLT-4 [1] worked out at 55 µg/mL (≈ 103 µM); in the assay with TSGH 8302 it was 7 µg/mL (≈ 13.2 µM); with HepG2 it was 22 µg/mL (≈ 41.4 µM); in the assay with KB, 12 µg/mL (≈ 22.6 µM); with COLO 205 it was 12 µg/mL (≈ 22.6 µM).

In the assay with MOLT-4 [2], `O=S(=O)(NC(=S)Nc1ccc(Cl)cc1)c1cccc2snnc12` displayed an Inhibition of 55%. For the same molecule, the IC50 turned out to be 42 µg/mL (≈ 109 µM) with TSGH 8302, 124 µg/mL (≈ 322 µM) in the assay with HepG2, 63 µg/mL (≈ 164 µM) in the assay on KB and 50 µg/mL (≈ 130 µM) in the assay with COLO 205.

Turning to `O=S(=O)(NC(=S)Nc1ccc(Cl)cc1)c1ccc(S(=O)(=O)c2ccccc2)s1`, the Inhibition in the assay on MOLT-4 [2] amounted to 59%. In addition, the IC50 with TSGH 8302 amounted to 79 µg/mL (≈ 167 µM); in the assay on HepG2 it was 216 µg/mL (≈ 457 µM); in the assay with KB, 66 µg/mL (≈ 140 µM); in the assay with COLO 205, 65 µg/mL (≈ 137 µM).

Consider `N#Cc1c(Cl)cccc1Oc1ccc(S(=O)(=O)N/C(=N\O)Nc2ccc(Cl)cc2)cc1`, for which the IC50 in the assay with MOLT-4 [1] is 95 µg/mL (≈ 199 µM); with TSGH 8302, 168 µg/mL (≈ 352 µM); with HepG2 it was greater than 300 µg/mL; with KB it was 39 µg/mL (≈ 81.7 µM); with COLO 205 it was 178 µg/mL (≈ 373 µM).

`Cc1c(S(=O)(=O)/N=C(\S)Nc2ccc(Cl)c(Cl)c2)sc2ccc(Cl)cc12` registered an Inhibition in the assay on MOLT-4 [2] of 65%. The IC50 worked out at 59 µg/mL (≈ 127 µM) in the assay on TSGH 8302, 62 µg/mL (≈ 133 µM) in the assay on HepG2, 25 µg/mL (≈ 53.7 µM) in the assay with KB and 57 µg/mL (≈ 122 µM) with COLO 205.

Regarding `O=[N+]([O-])c1ccc(Oc2c(Cl)cc(S(=O)(=O)N/C(=N\O)Nc3ccc(Cl)cc3)cc2Cl)c(Cl)c1`, the IC50 was determined as 56 µg/mL (≈ 98.9 µM) with MOLT-4 [1]; 7 µg/mL (≈ 12.4 µM) in the assay with TSGH 8302; 49 µg/mL (≈ 86.5 µM) in the assay on HepG2; 7 µg/mL (≈ 12.4 µM) in the assay on KB; 6 µg/mL (≈ 10.6 µM) in the assay with COLO 205. In the assay with Mus musculus [3], this molecule returned a Body weight change of 1.3 g. This molecule also showed an inhibition in vivo at 300 mg/kg with Mus musculus [4] of 70.7%.

In the case of `Cc1ccc(S(=O)(=O)N/C(=N\O)Nc2ccc(Cl)c(Cl)c2)cc1`, the concentration for half-maximal inhibition (IC50) in the assay with MOLT-4 [1] is 7 µg/mL (≈ 18.7 µM); in the assay on TSGH 8302, 67 µg/mL (≈ 179 µM); in the assay on HepG2, 72 µg/mL (≈ 192 µM); in the assay on KB, 8 µg/mL (≈ 21.4 µM); in the assay with COLO 205, 10 µg/mL (≈ 26.7 µM).

Consider `O=S(=O)(N/C(=N\O)Nc1ccc(Cl)cc1)c1ccccc1`, for which the concentration for half-maximal inhibition (IC50) in the assay with MOLT-4 [1] stood at 7 µg/mL (≈ 21.5 µM); with TSGH 8302, 52 µg/mL (≈ 160 µM); with HepG2, 54 µg/mL (≈ 166 µM); with KB, 46 µg/mL (≈ 141 µM); in the assay with COLO 205, 53 µg/mL (≈ 163 µM).

For the molecule `O=[N+]([O-])c1cccc(Cl)c1Oc1ccc(S(=O)(=O)N/C(=N\O)Nc2ccc(Cl)cc2)cc1`, the IC50 in the assay with TSGH 8302 is 53 µg/mL (≈ 107 µM); in the assay on HepG2, greater than 100 µg/mL; in the assay with KB it was 83 µg/mL (≈ 167 µM); in the assay with COLO 205 it was greater than 100 µg/mL.

Turning to `Cc1ccc(S(=O)(=O)N/C(=N\O)Nc2ccc(Cl)cc2)cc1`, the half-maximal inhibitory concentration (IC50) with MOLT-4 [1] is 6 µg/mL (≈ 17.7 µM); in the assay with TSGH 8302, 46 µg/mL (≈ 135 µM); in the assay with HepG2 it was 49 µg/mL (≈ 144 µM); in the assay on KB, 46 µg/mL (≈ 135 µM); with COLO 205 it was 58 µg/mL (≈ 171 µM).

For `O=S(=O)(N/C(=N\O)Nc1ccc(Cl)cc1)c1cc(S(=O)(=O)c2ccccc2)cs1`, the IC50 in the assay on MOLT-4 [1] worked out at 22 µg/mL (≈ 46.6 µM); with TSGH 8302 it was 37 µg/mL (≈ 78.4 µM); in the assay with HepG2, 175 µg/mL (≈ 371 µM); in the assay with KB, 10 µg/mL (≈ 21.2 µM); in the assay on COLO 205, 45 µg/mL (≈ 95.3 µM).

Turning to `Cc1c(S(=O)(=O)N/C(=N\O)Nc2ccc(Cl)cc2)sc2ccc(Cl)cc12`, the half-maximal inhibitory concentration (IC50) came out at 38 µg/mL (≈ 88.3 µM) in the assay with MOLT-4 [1]; 44 µg/mL (≈ 102 µM) in the assay with TSGH 8302; 140 µg/mL (≈ 325 µM) with HepG2; 29 µg/mL (≈ 67.4 µM) in the assay on KB; 60 µg/mL (≈ 139 µM) in the assay on COLO 205.

Turning to `Cc1c(S(=O)(=O)/N=C(\S)Nc2ccc(Cl)cc2)sc2ccc(Cl)cc12`, in the assay on MOLT-4 [2], the Inhibition is recorded as 12%. Also, the IC50 with TSGH 8302 stood at 55 µg/mL (≈ 127 µM); in the assay on HepG2 it was 57 µg/mL (≈ 132 µM); in the assay with KB, 61 µg/mL (≈ 141 µM); in the assay with COLO 205, 52 µg/mL (≈ 121 µM).

For the molecule `O=S(=O)(NC(=S)Nc1ccc(Cl)cc1)c1ccccc1`, the Inhibition with MOLT-4 [2] was determined as 63%. The IC50 in the assay with TSGH 8302 is greater than 300 µg/mL; with HepG2, greater than 300 µg/mL; in the assay with KB, 66 µg/mL (≈ 202 µM); in the assay on COLO 205, 91 µg/mL (≈ 278 µM).

As for `O=S(=O)(N/C(=N\O)Nc1ccc(Cl)cc1)c1cc(C(F)(F)F)cc(C(F)(F)F)c1`, the IC50 with MOLT-4 [1] stood at 44 µg/mL (≈ 95.3 µM); in the assay with TSGH 8302 it was 66 µg/mL (≈ 143 µM); with HepG2, 233 µg/mL (≈ 505 µM); in the assay with KB, 57 µg/mL (≈ 123 µM); with COLO 205 it was 58 µg/mL (≈ 126 µM).

Molecule `Cc1ccc(S(=O)(=O)NC(=O)Nc2ccc(Cl)cc2)cc1` [LY-181984] showed a Body weight change with Mus musculus [3] of -1.2 g. In the assay on MOLT-4 [2], this molecule displayed an Inhibition of 33%. The 50% inhibitory concentration (IC50) with TSGH 8302 was 106 µg/mL (≈ 326 µM); in the assay with HepG2, greater than 300 µg/mL; with KB, 72 µg/mL (≈ 222 µM); with COLO 205, 83 µg/mL (≈ 256 µM). In the assay with Mus musculus [4], this molecule returned an inhibition in vivo at 300 mg/kg of 64.7%.

Turning to `Cc1ccc(S(=O)(=O)/N=C(\S)Nc2ccc(Cl)cc2)cc1`, the Inhibition in the assay on MOLT-4 [2] is listed as 59%. Besides, the IC50 with TSGH 8302 came to 125 µg/mL (≈ 367 µM); in the assay on HepG2, 232 µg/mL (≈ 681 µM); in the assay on KB, 80 µg/mL (≈ 235 µM); with COLO 205 it was 87 µg/mL (≈ 255 µM).

For the molecule `O=S(=O)(N/C(=N\O)Nc1ccc(Cl)cc1)c1cc(-c2ccsc2)no1`, the IC50 with MOLT-4 [1] was 9 µg/mL (≈ 22.6 µM); in the assay with TSGH 8302, 149 µg/mL (≈ 374 µM); in the assay with HepG2, greater than 300 µg/mL; in the assay on KB, 55 µg/mL (≈ 138 µM); in the assay on COLO 205, 52 µg/mL (≈ 130 µM).

As to `O=S(=O)(NC(=S)Nc1ccc(Cl)cc1)c1cc(S(=O)(=O)c2ccccc2)cs1`, the IC50 with TSGH 8302 is 217 µg/mL (≈ 459 µM); in the assay on HepG2 it was 214 µg/mL (≈ 452 µM); in the assay with KB it was 196 µg/mL (≈ 414 µM); in the assay on COLO 205 it was 220 µg/mL (≈ 465 µM).

As to `O=S(=O)(N/C(=N\O)Nc1ccc(Cl)cc1)c1cc2ccccc2o1`, the IC50 with HepG2 is greater than 200 µg/mL; in the assay with KB, 67 µg/mL (≈ 183 µM); in the assay with COLO 205, greater than 200 µg/mL.

`Cc1c(S(=O)(=O)N/C(=N\O)Nc2ccc(Cl)c(Cl)c2)sc2ccc(Cl)cc12`: the IC50 in the assay on MOLT-4 [1], in the assay with TSGH 8302, in the assay on HepG2, in the assay on KB and in the assay on COLO 205 was greater than 300 µg/mL throughout.

In the case of `Cc1ccc(S(=O)(=O)/N=C(\S)Nc2ccc(Cl)c(Cl)c2)cc1`, the Inhibition in the assay on MOLT-4 [2] turned out to be 39%. Further, the IC50 in the assay with TSGH 8302 was determined as 55 µg/mL (≈ 147 µM); in the assay on HepG2 it was 120 µg/mL (≈ 320 µM); with KB, 41 µg/mL (≈ 109 µM); with COLO 205 it was 45 µg/mL (≈ 120 µM).

On to `O=S(=O)(N/C(=N\O)Nc1ccc(Cl)cc1)c1cc2ccccc2s1`, for which the IC50 worked out at 57 µg/mL (≈ 149 µM) with MOLT-4 [1]; 76 µg/mL (≈ 199 µM) with TSGH 8302; 176 µg/mL (≈ 461 µM) in the assay with HepG2; 55 µg/mL (≈ 144 µM) in the assay on KB; 80 µg/mL (≈ 209 µM) in the assay on COLO 205.

For the molecule `O=S(=O)(N/C(=N\O)Nc1ccc(Cl)cc1)c1ccc(S(=O)(=O)c2ccccc2)s1`, the IC50 with TSGH 8302 is 41 µg/mL (≈ 86.9 µM); in the assay with HepG2 it was 92 µg/mL (≈ 195 µM); in the assay with KB, 29 µg/mL (≈ 61.4 µM); with COLO 205, 59 µg/mL (≈ 125 µM).

For `O=S(=O)(N/C(=N\O)Nc1ccc(Cl)cc1)c1cccc2snnc12`, the IC50 in the assay on MOLT-4 [1] came to 33 µg/mL (≈ 86 µM); with TSGH 8302, 93 µg/mL (≈ 242 µM); in the assay on HepG2, 45 µg/mL (≈ 117 µM); with KB, 35 µg/mL (≈ 91.2 µM); in the assay with COLO 205 it was 87 µg/mL (≈ 227 µM).

Regarding `O=S(=O)(N/C(=N\O)Nc1ccc(Cl)cc1)c1ccc(-c2cccs2)cn1`, the IC50 was 75 µg/mL (≈ 183 µM) in the assay on MOLT-4 [1]; 208 µg/mL (≈ 509 µM) in the assay with TSGH 8302; 121 µg/mL (≈ 296 µM) in the assay with HepG2; 61 µg/mL (≈ 149 µM) with KB; 74 µg/mL (≈ 181 µM) with COLO 205.

Source of the values: ChEMBL document CHEMBL1130091, “Synthesis and cytotoxic evaluation of substituted sulfonyl-N-hydroxyguanidine derivatives as potential antitumor agents” (J Med Chem, 1997).
